# Reference: paper PMC11981937 (Nature, 2025)
# Assay: In vivo mortality (stray panel in source data sheet Fig. 3d)
# Conditions: 2'CMC
structure (smiles),measurement,setting,value
"C[C@@]1(O)[C@H](O)[C@@H](CO)O[C@H]1n1ccc(N)nc1=O [2'CMC, reference compound]",% Survival,d p.i. 0,100%
same,% Survival,d p.i. 1,100%
same,% Survival,d p.i. 2,100%
same,% Survival,d p.i. 3,100%
same,% Survival,d p.i. 4,100%
same,% Survival,d p.i. 5,100%
same,% Survival,d p.i. 6,100%
same,% Survival,d p.i. 7,100%
same,% Survival,d p.i. 8,100%
same,% Survival,d p.i. 9,100%
same,% Survival,d p.i. 10,100%
same,% Survival,d p.i. 11,100%
same,% Survival,d p.i. 12,100%
same,% Survival,d p.i. 13,90%
same,% Survival,d p.i. 14,80%
same,% Survival,d p.i. 15,80%
same,% Survival,d p.i. 16,80%
same,% Survival,d p.i. 17,80%
same,% Survival,d p.i. 18,60%
same,% Survival,d p.i. 19,60%
same,% Survival,d p.i. 20,60%
same,% Survival,d p.i. 21,60%
same,% Survival,d p.i. 22,60%
same,% Survival,d p.i. 23,60%
same,% Survival,d p.i. 24,50%
same,% Survival,d p.i. 25,50%
